Marks after values point to notes of the source that are not given here.
Tests used:
Plasmodium berghei = conditions: oral doses of 1–10 mg/kg/day (2.5–25 µmol/kg/day), 4-day suppressive test; cited from earlier work
[1] = system: 3T3L1 mouse embryonic fibroblast cell line; experiment: Cellular antioxidant activity (oxidation of DCFH-DA); assay type: cell-based; parameters: inhibition of the oxidation of DCFH-DA in 3T3L1 cells: concentration or dose not given beside the values; conditions: over the observation period of 60 min
Description: These tests evaluate the reducing effect of a given substance on the radical species formed in situ during these assays leading to a decrease in color versus controls that is measured spectrophotometrically. […] Thus, at a concentration of 250 µM, 4-NC inhibited DPPH• and ABTS+• by 97% and 95%, respectively. Mono-O-substituted 4-NC derivatives 2–5 inhibited ABTS+• by 89–93%. […] The antioxidant activity was also evaluated in mouse embryonic 3T3L1 fibroblasts. In this assay DCFH-DA (2',7'-dichlorofluorescein diacetate) is hydrolyzed by intracellular esterases and then oxidized by reactive oxygen species (ROS) to the fluorescent compound 2'-7'-DCF. An active antioxidant substance can inhibit the transformation of fatty acids to fatty acid hydroperoxides in the cell membranes and thereby inhibit the oxidation of DCFH-DA.
The antioxidant activity of 4-NC and semi-synthetic derivatives of 4-NC was evaluated on the 1st and 30th days after dissolving the substances in DMSO at a concentration of 10 mM and storage in a freezer at −20 °C. This experiment permitted the evaluation of the relative stability of the antioxidant activity of 4-NC, derivatives of 4-NC, BHT and BHA. Thus, cellular antioxidants were evaluated using the mouse embryonic fibroblast 3T3L1 cell line. […] The presence of mono-O or di-O,O substituent groups in the 4-NC derivatives can confer stability relative to 4-NC. Such chemical stability is highly desirable when contemplating the use of such substances in cosmetic and pharmaceutical formulations and foods. Here, 4-NC dissolved in DMSO lost more than 80% of its antioxidant activity after 30 days in the freezer.
Intracellular ROS production was detected using the non-fluorescent cell permeating compound, 2'7'-dichlorofluorescein diacetate (DCF-DA), as described by Wolfe and Liu. DCF-DA is hydrolyzed by intracellular esterases and then oxidized by hydroperoxides into the fluorescent compound, 2'-7'-DCF. 3T3-L1 cells were seeded at a density of 6 × 10^4 cells/well in a 96-well microplate in 100 μL of growth medium. 24 h after seeding, the growth medium was removed and the wells were washed with PBS. Then, a 10 μM solution of DCFH-DA dissolved in Hank’s buffer (100 μL) was added to wells and incubated for 30 min at 37 °C and 5% CO2. The cells were washed first with PBS (100 μL) then EEP (100 µL) and samples having different concentrations were added. The fluorescence was immediately measured at an excitation wavelength of 485 nm and emission wavelength of 520 nm over 60 min at 5 min intervals. Controls with/without DCFH-DA were prepared and subjected to analogous procedures. Quercetin, BHA and BHT were used as positive controls of antioxidant activity.

Brine shrimp assay = experiment: Brine shrimp assay; parameters: species or system Artemia franciscana; conditions: Artemia franciscana (brine shrimp), in vivo; read-out: Toxicity Brine shrimp (Artemia franciscana) (LC50)
Artemia franciscana = experiment: Brine shrimp assay; conditions: in vivo
[2] = system: human leukemia cells (HL-60 and CEM); parameters: method as in ref 1 = [1]; 1. Pinto A.C.S. Pessoa C.O. Costa-Lotufo L.V. Moraes M.O. Moraes M.E.A. Cavalcanti B.C. Nunomura S.M. Pohlit A.M. In vitro cytotoxicity of Pothomorphe peltata (L.) Miquel (Piperaceae), isolated 4-nero; conditions: cited from earlier work
[3] = DPPH radical-scavenging activity; assay type: biochemical; conditions: compounds tested at 250 µM; mean ± standard deviation, n = 3
Description: The measurement of the scavenger activity of DPPH• was carried out according to the method of Molineux with modifications. Substances at 250 µM were added, at an equal volume, to the methanol solution of DPPH• ([…]). After 15 min at room temperature, the absorbance was recorded at 517 nm (sample abs). The experiment was repeated three times. BHT, BHA were used as controls. Values denote percentage of DPPH free radical inhibition. The antioxidant activity was calculated using the equation: % inhibition = 100 × (1 − sample abs/control abs).

[4] = ABTS radical-scavenging activity; assay type: biochemical; conditions: compounds tested at 250 µM; mean ± standard deviation, n = 3
Description: The ABTS assay used herein was based on the method of Re et al. with slight modifications. Substances at concentrations of 250 µM, BHT or BHA were added to dilute ABTS solution and the absorbance at […] was measured. The antioxidant activity was calculated using the equation: % inhibition = 100 × (1 − sample abs/control abs).

For C=CC(C)(CC/C=C(\C)CCC=C(C)C)c1ccc(OC(C)=O)c(OC(C)=O)c1 (stereo not shown) [Compound 7, O,O-diacetyl-4-nerolidylcatechol], which “in vivo inhibitory activity in P. berghei-infected mice” value (Plasmodium berghei) is on record?
Its value is “significant in vivo inhibitory activity”.

And the “inhibition of the oxidation of DCFH-DA in 3T3L1 cells” value [1]?
The value was at least 20%.

What about the LC50 (Brine shrimp assay) of the same molecule?
The LC50 was 83 µM.

What about the “cytotoxic activity against Artemia franciscana in the brine shrimp assay” value (Artemia franciscana) of the same molecule?
Its value is “moderately toxic”.

And the IC50 [2]?
The IC50 was 15.5 to 15.6 µM.

And the “DPPH• (%) percentage of inhibition” value [3]?
Its value is 6.36 ± 1.15 ^c %.

And the “ABTS (%) percentage of inhibition” value [4]?
Its value is 8.60 ± 0.10 ^b %.

From article PMC6269653, “Stability and Antioxidant Activity of Semi-synthetic Derivatives of 4-Nerolidylcatechol” (Molecules, 2012)
